The values below come from article PMC6591010 (Molecular cell, 2019).

In experiment [1] the target is Sc condensin holocomplex (Saccharomyces cerevisiae, UniProt P38989+Q12267). Conditions: with or without DNA.
Experiment [2] addresses Ct Smc4hd–Brn1C (Thermochaetoides thermophila, UniProt G0S2G2, DEL467-1366/Q421L). In words: biochemical.

Sequence of Ct Smc4hd–Brn1C (G0S2G2 264-466 Q421L): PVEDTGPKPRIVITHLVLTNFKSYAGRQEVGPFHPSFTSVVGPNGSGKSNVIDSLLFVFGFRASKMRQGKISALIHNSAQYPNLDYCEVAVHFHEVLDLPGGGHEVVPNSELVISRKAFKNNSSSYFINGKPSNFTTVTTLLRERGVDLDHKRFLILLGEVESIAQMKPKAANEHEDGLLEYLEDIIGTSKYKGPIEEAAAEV
Sequence of Ct Smc4hd–Brn1C (G0S2G2 1367-1542, stated change not applied): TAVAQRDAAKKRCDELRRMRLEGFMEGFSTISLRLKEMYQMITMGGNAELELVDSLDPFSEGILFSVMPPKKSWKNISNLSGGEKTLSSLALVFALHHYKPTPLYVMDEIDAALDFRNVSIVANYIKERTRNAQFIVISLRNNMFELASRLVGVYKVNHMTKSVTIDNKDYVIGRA
Sequence of Ct Smc4hd–Brn1C (G0SBJ6 765-898 partner): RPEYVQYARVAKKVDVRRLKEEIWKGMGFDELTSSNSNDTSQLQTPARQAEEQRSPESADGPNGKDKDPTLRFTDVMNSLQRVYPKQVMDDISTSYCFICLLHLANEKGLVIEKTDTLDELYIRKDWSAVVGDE

For `Nc1ncnc2c1ncn2[C@@H]1O[C@H](COP(=O)(O)OP(=O)(O)OP(=O)(O)O)[C@@H](O)[C@H]1O` [ATP], the ATP hydrolysis assay result in experiment [1] is “basal and DNA-stimulated ATPase activities of condensin holocomplexes”. Besides, the affinity in experiment [2], expressed as Kd, was 18.4 µM.
